In patent US20080287490A1, “Bis-pyridino containing compounds for the use in the treatment of CNS pathologies” (UNIVERSITY OF KENTUCKY RESEARCH FOUNDATION, priority 2005, published 2008):
Where two headings read alike, the source gives them in different places.

Experiments:
[1] = biological target: T1, Rat Striatal Nicotinic Acetylcholine Receptors ([^3H]nicotine binding sites) (Rattus norvegicus, UniProt P09483+P12390); assay: biochemical; conditions: read-out: Ki, specific binding of [^3H]-nicotine
T1 construct: Striata from two rats were dissected, pooled, and homogenized; from tissue; host or cells: rat striatum membranes
Method: Striata from two rats were dissected, pooled, and homogenized with a Tekmar polytron in 10 volumes of ice-cold modified Krebs-HEPES buffer (20 mM HEPES, 118 mM NaCl, 4.8 mM KCl, 2.5 mM CaCl2, 1.2 mM MgSO4, adjusted to pH 7.5). The homogenates were incubated at 37° C. for five minutes and centrifuged at 15,000 g for 20 minutes. The pellet was resuspended in ten volumes of ice-cold MilliQ water, incubated for five minutes at 37° C., and centrifuged at 15,000 g for 20 minutes The second pellet was then resuspended in ten volumes of fresh ice-cold 10% Krebs-HEPES buffer, incubated at 37° C., and centrifuged at 15,000 g for 20 minutes. The latter sequence of resuspension, incubation, and centrifugation was repeated. The pellet was frozen under fresh 10% Krebs-HEPES buffer and stored at −40° C. until assay. Upon assay, the pellet was resuspended in the Krebs-HEPES buffer, incubated at 37° C. for five minutes, and centrifuged at 15,000 g for 20 minutes. The final pellet was resuspended in 3.6 ml ice-cold MilliQ water which provided for approximately 200 μg protein per 100 μl aliquot. Competition assays were performed in duplicate in a final volume of 200 μl Krebs-HEPES buffer containing […] Tris buffer (pH 7.5 at 4° C.). […] After a 90 minute incubation at 4° C., reactions were terminated by dilution of the samples with 3 ml of ice-cold Krebs-HEPES buffer followed immediately by filtration through Whatman GF/B glass fiber filters (presoaked in 0.5% polyethyleneimine) using a Brandel Cell Harvester. Filters were rinsed three times with 3 ml of ice-cold Krebs-HEPES buffer, transferred to scintillation vials, and 5 ml scintillation cocktail (Research Products International Corp., Mt. Prospect, Ill.) added. […] Binding parameters were determined using the weighted, least squares non-linear regression.

[2] = tested on: nAChR mediating nicotine-evoked [^3H]DA release (α3β2* receptor subtype); format: cell-based, rat; conditions: read-out: IC50, S-(−)-nicotine-evoked [^3H]DA release
Method: Slices were rinsed with 15 mL of fresh buffer and incubated for an additional 30 minutes in fresh buffer containing 0.1 μM [^3H]DA (6 slices/3 ml). Subsequently, slices were rinsed with 15 ml of fresh buffer and transferred to a glass superfusion chamber.
Radioactivity in the superfusate and tissue samples was determined by liquid scintillation spectroscopy. […] Basal [^3H]outflow was calculated from the average of the tritium collected in the two five minute samples just before addition of the bis-alkyl pyridino analog. […] [^3H]Overflow was calculated by subtracting the [^3H]outflow during an equivalent period of prestimulation from the values in samples collected during and after drug exposure. Inasmuch as the radiolabelled compounds were not separated and identified, the tritium collected in superfusate is referred to as either [^3H]outflow or [^3H]overflow, rather than as [^3H]DA.

[3] = biological target: T2, α7-type neuronal nicotinic acetylcholine receptors (Rattus norvegicus, UniProt Q05941); assay: biochemical; conditions: read-out: Ki, [^3H]MLA binding
T2 construct: Rat brain was dissected into the whole brain tissue without cortex, striatum and cerebellum; from tissue; host or cells: rat brain (without cortex, striatum, cerebellum) membranes

[4] = tested on: nAChR subtypes mediating nicotine-evoked [^3H]-dopamine overflow
Method: [^3H]-Dopamine overflow from superfused striatal slices. […] Striatal coronal slices (500 μm, 4-6 mg) were obtained and incubated for 30 minutes in Krebs' buffer (in mM: 118 NaCl, 4.7 KCl, 1.2 MgCl2, 1 NaH2PO4, 1.3 CaCl2, 11.1 glucose, 25 NaHCO3, 0.11 L-ascorbic acid and 0.004 disodium EDTA, pH 7.4, saturated with 95% O2/5% CO2) in a metabolic shaker at 34° C. Slices were incubated with 0.1 μM (final concentration) of [^3H]-dopamine during the latter 30 minutes of the 60-minute incubation period. Each slice was transferred to a glass superfusion chamber maintained at 34° C. and superfused (1 ml/min) with Krebs' buffer containing nomifensine (10 μM) and pargyline (10 μM) to inhibit [^3H]-dopamine reuptake after release into the extracellular space, ensuring that [^3H]-overflow primarily represented [^3H]-dopamine. Sample collection (5-minute; 5 mL) began after 60 minutes of superfusion. […] At the end of the experiment, each slice was solubilized, and the [^3H]-content of the tissue determined. Release during each minute was normalized for total tissue [^3H]-content. Analog-induced intrinsic activity and inhibitory activity were determined using slices from the same rat (repeated-measures design).
The amount of [^3H] in each sample was calculated by dividing the total [^3H] collected in each sample by the total in the tissue at the time of sample collection (defined as fractional release). […] Data were analyzed by weighted, least squares regression analysis of the sigmoidal concentration-effect curves to obtain EC50 and IC50 values.
Striatal slices (500 μm, 4-6 mg) were incubated for 30 minutes in Krebs' buffer (in mM: 118 NaCl, 4.7 KCl, 1.2 MgCl2, 1 NaH2PO4, 1.3 CaCl2, 11.1 glucose, 25 NaHCO3, 0.11 L-ascorbic acid and 0.004 disodium EDTA, pH 7.4, saturated with 95% O2/5% CO2) in a metabolic shaker at 34° C. Slices were incubated with 0.1 μM (final concentration) [^3H]DA during the latter 30 minutes of the 60-minute incubation period. Each slice was transferred to a glass superfusion chamber maintained at 34° C. and superfused (1 ml/min) with Krebs' buffer containing nomifensine (10 μM) and pargyline (10 μM) to inhibit [^3H]DA reuptake and metabolism, respectively, after release into the extracellular space, ensuring that [^3H]overflow primarily represents [^3H]DA. Sample collection (5-minute; 5 ml) began after 60 minutes of superfusion. […] Thus, the ability of these analogs to elicit intrinsic activity (evoke [^3H]DA overflow) was determined. At the end of the experiment, each slice was solubilized and [^3H]content of the tissue determined. Release during each minute was normalized for total [^3H]content of the slice. Analog-induced intrinsic activity and inhibitory activity were determined using slices from the same rat (repeated-measures design).
Fractional release was calculated by dividing the total tritium collected in each sample by the total tritium in the tissue at the time of sample collection. […] Typically, data were analyzed by weighted, least squares regression analysis of sigmoidal concentration-effect curves to obtain EC50 and IC50 values.

α4β2* nAChRs = α4β2* nAChRs (Rattus norvegicus, UniProt P09483+P12390)
Method: Whole brain, excluding cortex and cerebellum, was homogenized in 20 ml of ice-cold buffer, containing (in mM): 2 HEPES, 11.8 NaCl, 0.48 KCl, 0.25 CaCl2 and 0.12 MgSO4, pH 7.5. Homogenate was centrifuged (25,000 g, 15 minutes, 4° C.). Pellets were resuspended in 20 ml of buffer and incubated at 37° C., for ten minutes, cooled to 4° C. and centrifuged (25,000 g, 15 minutes, 4° C.). Pellets were resuspended and centrifuged using the same conditions. Final pellets were stored in assay buffer, containing (in mM): 20 HEPES, 118 NaCl, 4.8 KCl, 2.5 CaCl2, and 1.2 MgSO4) pH 7.5 at −70° C. Upon use, final pellets were resuspended in ˜20 ml assay buffer. […] Control was in the absence of analog. […] Incubations proceeded for 60 minutes at room temperature using 96-well plates and were terminated by harvesting on Unifilter-96 GF/B filter plates presoaked in 0.5% polyethylenimine, using a Packard FilterMate harvester.
After washing five times with 350 μl ice-cold assay buffer, filter plates were dried (60 minutes, 49° C.), bottom-sealed, and filled with Packard's MicroScint 20 cocktail (40 μl/well). After 60 minutes, filter plates were top-sealed, and radioactivity determined using a Packard TopCount. Protein concentrations were determined using bovine serum albumin as the standard.
Whole brain was homogenized in 20 ml of ice-cold buffer (in mM: 2 HEPES, 11.8 NaCl, 0.48 KCl, 0.25 CaCl2, and 0.12 MgSO4, pH 7.5). Homogenates were centrifuged (25,000 g, 15 minutes, 4° C.). Pellets were resuspended in 20 ml of buffer and incubated at 37° C., for 10 minutes, cooled to 4° C. and centrifuged (25,000 g, 15 minutes, 4° C.). Pellets were resuspended and centrifuged again using the same conditions. Final pellets were stored at −70° C. in assay buffer (in mM: 20 HEPES, 118 NaCl, 4.8 KCl, 2.5 CaCl2, and 1.2 MgSO4, pH 7.5). Upon use, final pellets were resuspended in ˜20 ml assay buffer. […] Control was in the absence of analog. […] Incubation proceeded for 60 minutes at room temperature using 96-well plates and was terminated by harvesting on Unifilter-96 GF/B filter plates, presoaked in 0.5% polyethylenimine, using a Packard FiterMate harvester. After washing 5× with 350 μl ice-cold assay buffer, filter plates were dried (60 minutes, 49° C.), bottom-sealed, and filled with Packard's MicroScint 20 cocktail (40 μl/well). After 60 minutes, filter plates were top-sealed, and radioactivity determined. Protein concentration was determined using BSA as the standard.

[5] = rat striatal membranes, 3 nM [^3H]-nicotine
[6] = rat striatal slices, nicotine 10 μM
[7] = read-out: Nicotine-evoked [^3H]DA Overflow IC50, Table 5, mean (95% confidence interval)
[8] = rat brain membranes, 2.5 nM [^3H]-MLA
[9] = read-out: Nicotine-evoked [^3H]DA Overflow IC50, Table 6, mean (standard error)

T1 sequence (P09483 31-630): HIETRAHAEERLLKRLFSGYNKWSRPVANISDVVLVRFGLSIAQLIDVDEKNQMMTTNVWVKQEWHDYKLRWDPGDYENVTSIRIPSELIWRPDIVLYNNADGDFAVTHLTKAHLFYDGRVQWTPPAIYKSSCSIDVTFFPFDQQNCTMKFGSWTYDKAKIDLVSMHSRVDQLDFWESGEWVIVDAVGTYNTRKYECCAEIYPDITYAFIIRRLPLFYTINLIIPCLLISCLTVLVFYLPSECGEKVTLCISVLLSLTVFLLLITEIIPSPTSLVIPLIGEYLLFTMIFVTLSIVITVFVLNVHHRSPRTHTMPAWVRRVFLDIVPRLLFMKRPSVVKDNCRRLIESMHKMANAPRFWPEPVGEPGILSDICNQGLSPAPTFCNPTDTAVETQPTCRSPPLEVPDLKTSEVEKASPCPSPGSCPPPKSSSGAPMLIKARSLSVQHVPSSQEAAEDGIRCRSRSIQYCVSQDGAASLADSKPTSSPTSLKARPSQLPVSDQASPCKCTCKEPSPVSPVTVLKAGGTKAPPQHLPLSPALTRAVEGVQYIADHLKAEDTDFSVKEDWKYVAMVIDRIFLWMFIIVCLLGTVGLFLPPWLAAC
T1 sequence (P12390 25-500): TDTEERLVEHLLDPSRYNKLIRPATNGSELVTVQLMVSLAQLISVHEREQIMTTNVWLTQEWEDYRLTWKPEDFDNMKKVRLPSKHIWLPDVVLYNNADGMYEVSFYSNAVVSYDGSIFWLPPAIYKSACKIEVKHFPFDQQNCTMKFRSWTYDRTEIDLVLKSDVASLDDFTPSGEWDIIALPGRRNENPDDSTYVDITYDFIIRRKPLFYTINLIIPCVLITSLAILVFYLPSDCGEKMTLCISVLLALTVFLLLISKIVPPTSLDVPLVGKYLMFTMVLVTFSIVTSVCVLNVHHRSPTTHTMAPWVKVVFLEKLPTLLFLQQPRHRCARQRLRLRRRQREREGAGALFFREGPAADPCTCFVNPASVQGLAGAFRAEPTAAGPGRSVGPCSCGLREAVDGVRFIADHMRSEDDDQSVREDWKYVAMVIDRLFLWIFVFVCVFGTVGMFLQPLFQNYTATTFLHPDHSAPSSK
T2 sequence (Q05941 23-502): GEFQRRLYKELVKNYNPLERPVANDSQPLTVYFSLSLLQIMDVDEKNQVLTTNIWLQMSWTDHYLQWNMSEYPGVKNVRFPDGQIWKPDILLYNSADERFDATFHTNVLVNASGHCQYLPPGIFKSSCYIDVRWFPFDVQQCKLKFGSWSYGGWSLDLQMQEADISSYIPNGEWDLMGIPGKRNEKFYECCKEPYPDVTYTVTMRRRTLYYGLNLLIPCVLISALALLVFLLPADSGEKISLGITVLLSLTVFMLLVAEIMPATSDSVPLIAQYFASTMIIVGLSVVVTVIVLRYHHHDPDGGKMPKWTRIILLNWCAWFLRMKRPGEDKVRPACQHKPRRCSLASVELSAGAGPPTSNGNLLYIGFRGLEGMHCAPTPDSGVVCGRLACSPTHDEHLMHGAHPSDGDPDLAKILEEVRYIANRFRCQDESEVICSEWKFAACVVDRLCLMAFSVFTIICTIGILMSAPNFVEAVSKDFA
Chain of α4β2* nAChRs (P09483 31-630): as the sequence (P09483 31-630) above
Chain of α4β2* nAChRs (P12390 25-500): as the sequence (P12390 25-500) above

Question: Which Ki [1, 5] does the source give for `c1cc[n+](CCCCCCCCCCC[n+]2ccccc2)cc1` [bPUB, N,N′-Undecane-1,11′-diyl-bis-pyridinium Dibromide] here?
Answer: The Ki was 14.4 µM.

Question: What about the IC50 [2, 6] of the same compound?
Answer: The IC50 was > 100 µM.

Question: And the Ki [3]?
Answer: Its Ki is 50.2 µM.

Question: How did the IC50 [4, 7] turn out when `CCCCCCCCCCCCCCCCCCCC[n+]1ccccc1` [NEcPB] was run?
Answer: The IC50 was 0.12 µM.

Question: `c1ccc2c[n+](CCCCCCCCCC[n+]3ccc4ccccc4c3)ccc2c1` [bIQDI, N,N′-Decane-1,10-diyl-bis-isoquinolinium Diiodide] was tested. Which IC50 [2, 6] did it give?
Answer: Its IC50 is 2.62 µM.

Question: And the Ki [3, 8]?
Answer: The Ki was 5.5 µM.

Question: For `CCCCCCCC[n+]1cccc(C)c1` [NOPiI], which IC50 ([4]; read-out: Nicotine-evoked [^3H]DA Overflow IC50, Table 9, mean (standard error)) is on record?
Answer: Its IC50 is 1 µM.

Question: How did the IC50 [4, 9] turn out when `CCCCCCCCC[n+]1cccc2c1CCC1CCN(C)C21` (stereo not drawn) [BCN] was run?
Answer: Its IC50 is 0.31 µM.

Question: For `CN1CCC[C@H]1c1ccc[n+](CCCCCCCCCCC[n+]2cccc([C@@H]3CCCN3C)c2)c1` [bNUB, N,N′-Undecane-1,11-diyl-bis-nicotinium Dibromide], which Ki [1, 5] is on record?
Answer: Its Ki is 0.37 µM.

Question: What about the IC50 [2, 6] of the same compound?
Answer: Its IC50 is > 100 µM.

Question: What does the source list for `c1ccc2c(c1)ccc[n+]2CCCCCCCCC[n+]1cccc2ccccc21` [bQNB, N,N′-Nonane-1,9-diyl-bis-quinolinium Dibromide]?
Answer: Ki [1, 5]: 20.1 µM; IC50 [2, 6]: 17.3 µM; Ki [3, 8]: 3.4 µM

Question: What does the source list for `CN1CCCC1c1ccc[n+](CCCCCCCCCC[n+]2cccc(C3CCCN3C)c2)c1` (stereo not drawn) [bNDI, N,N′-Decane-1,10-diyl-bis-nicotinium Diiodide]?
Answer: Ki [1, 5]: 0.28 µM; IC50 [2, 6]: > 100 µM; Ki [3, 8]: > 100 µM

Question: With `c1ccc2c(c1)ccc[n+]2CCCCCCCC[n+]1cccc2ccccc21` [bQOI, N,N′-Octane-1,8-diyl-bis-quinolinium Diiodide] as the compound, how does the IC50 [2, 6] read?
Answer: Its IC50 is 10.7 µM.

Question: And the Ki [3, 8]?
Answer: The Ki was 2.01 µM.

Question: For `c1ccc2c(c1)ccc[n+]2CCCCCCCCCC[n+]1cccc2ccccc21` [bQDI, N,N′-Decane-1,10-diyl-bis-quinolinium Diiodide], which IC50 [2, 6] is on record?
Answer: The IC50 was 8.99 µM.

Question: What about the Ki [3, 8] of the same compound?
Answer: The Ki was 7.32 µM.

Question: `c1cc[n+](CCCCCC[n+]2ccccc2)cc1` [bPHxI, N,N′-Hexane-1,6-diyl-bis-pyridinium Diiodide] was tested. Which Ki [1, 5] did it give?
Answer: The Ki was 97.8 µM.

Question: And the IC50 [2, 6]?
Answer: Its IC50 is > 100 µM.

Question: For `CCCCCCCCCCCC[n+]1ccc2c(c1)[C@@H]1[C@H](CC2)CCN1C` [ACDD], which IC50 [4, 9] is on record?
Answer: The IC50 was 0.22 µM.

Question: Which IC50 [2, 6] does the source give for `CN1CCC[C@H]1c1ccc[n+](CCCCCC[n+]2cccc([C@@H]3CCCN3C)c2)c1` [bNHxI, N,N′-Hexane-1,6-diyl-bis-nicotinium Diiodide] here?
Answer: The IC50 was > 100 µM.

Question: Which results are given for `CO[C@H]1CC=C2CCN3CCC4=C(CC(=O)OC4)[C@]23C1` [DHβE, dihydro-β-erthyroidine, reference compound]?
Answer: Ki [1]: 0.15 µM; IC50 [2]: 1 µM

Question: What does the source list for `CCCCCCCCCCCCCCC[n+]1ccccc1` [NPDPB]?
Answer: Ki (α4β2* nAChRs; read-out: [^3H]Nicotine Binding Ki, Table 5, mean (95% confidence interval)): 38 µM; IC50 [4, 7]: 0.32 µM

Question: For `CCCCCCCCCCC[n+]1cccc2c1CCC1CCN(C)C21` (stereo not drawn) [BCU], which IC50 [4, 9] is on record?
Answer: The IC50 was 0.04 µM.

Question: How did the Ki [1, 5] turn out when `c1cc[n+](CCCCCCCCC[n+]2ccccc2)cc1` [bPNB, N,N′-Nonane-1,9-diyl-bis-pyridinium Dibromide] was run?
Answer: Its Ki is 24.1 µM.

Question: What about the IC50 [2, 6] of the same compound?
Answer: The IC50 was > 100 µM.

Question: `CN1CCC[C@H]1c1ccc[n+](CCCCCCCC[n+]2cccc([C@@H]3CCCN3C)c2)c1` [bNOI, N,N′-Octane-1,8-diyl-bis-nicotinium Diiodide] was tested. Which Ki [1, 5] did it give?
Answer: Its Ki is 1.5 µM.

Question: And the IC50 [2, 6]?
Answer: The IC50 was 19.1 µM.

Question: Which Ki (α4β2* nAChRs) does the source give for `CCCCCCCCCCCC[n+]1cccc(C2CCCN2C)c1` (stereo not drawn) [NDDNI] here?
Answer: Its Ki is 0.14 µM.

Question: And the “potency relative to DHβE as inhibitor of nAChRs mediating nicotine-evoked dopamine release” value [4]?
Answer: Its value is “at least two orders of magnitude more potent”.

Question: What about the IC50 ([4]; read-out: IC50, inhibition of nicotine-evoked [^3H]dopamine release/overflow) of the same compound?
Answer: The IC50 was 0.009 µM.

Question: `CN1CCC[C@H]1c1ccc[n+](CCCCCCCCC[n+]2cccc([C@@H]3CCCN3C)c2)c1` [bNNB, N,N′-Nonane-1,9-diyl-bis-nicotinium Dibromide] was tested. Which Ki [1, 5] did it give?
Answer: The Ki was 4.31 µM.

Question: And the IC50 [2, 6]?
Answer: Its IC50 is > 100 µM.

Question: `CCCCCCCCCCCC[n+]1ccccc1` [NDDPI] was tested. Which IC50 [4, 7] did it give?
Answer: Its IC50 is 0.26 µM.

Question: Which Ki [1, 5] does the source give for `c1cc[n+](CCCCCCCCCC[n+]2ccccc2)cc1` [bPDI, N,N′-Decane-1,10-diyl-bis-pyridinium Diiodide] here?
Answer: Its Ki is 18.6 µM.

Question: And the IC50 [2, 6]?
Answer: Its IC50 is > 1 µM.

Question: With `c1cc[n+](CCCCCCCC[n+]2ccccc2)cc1` [bPOI, N,N′-Octane-1,8-diyl-bis-pyridinium Diiodide] as the compound, how does the Ki [1, 5] read?
Answer: The Ki was 33.9 µM.

Question: And the IC50 [2, 6]?
Answer: The IC50 was > 1 µM.

Question: For `c1cc[n+](CCCCC[n+]2ccccc2)cc1` [bPPeI, N,N′-Pentane-1,5-diyl-bis-pyridinium Diiodide], which Ki [1, 5] is on record?
Answer: Its Ki is > 100 µM.

Question: What about the IC50 [2, 6] of the same compound?
Answer: The IC50 was > 100 µM.
